We go through three compounds from PMC8831520, “Small molecule SWELL1 complex induction improves glycemic control and nonalcoholic fatty liver disease in murine Type 2 diabetes” (Nature Communications, 2022).

In this test the target is T1, ICl,SWELL (SWELL1-LRRC8 channel) in HEK-293 cells (Homo sapiens, UniProt Q8IWT6).
T1 construct: applied when the endogenous HEK-293 cell ICl,SWELL current density reached 30 pA/pF; endogenous in cells; host or cells: HEK-293 (ATCC, #CRL-1573)
T1 sequence (Q8IWT6 1-810): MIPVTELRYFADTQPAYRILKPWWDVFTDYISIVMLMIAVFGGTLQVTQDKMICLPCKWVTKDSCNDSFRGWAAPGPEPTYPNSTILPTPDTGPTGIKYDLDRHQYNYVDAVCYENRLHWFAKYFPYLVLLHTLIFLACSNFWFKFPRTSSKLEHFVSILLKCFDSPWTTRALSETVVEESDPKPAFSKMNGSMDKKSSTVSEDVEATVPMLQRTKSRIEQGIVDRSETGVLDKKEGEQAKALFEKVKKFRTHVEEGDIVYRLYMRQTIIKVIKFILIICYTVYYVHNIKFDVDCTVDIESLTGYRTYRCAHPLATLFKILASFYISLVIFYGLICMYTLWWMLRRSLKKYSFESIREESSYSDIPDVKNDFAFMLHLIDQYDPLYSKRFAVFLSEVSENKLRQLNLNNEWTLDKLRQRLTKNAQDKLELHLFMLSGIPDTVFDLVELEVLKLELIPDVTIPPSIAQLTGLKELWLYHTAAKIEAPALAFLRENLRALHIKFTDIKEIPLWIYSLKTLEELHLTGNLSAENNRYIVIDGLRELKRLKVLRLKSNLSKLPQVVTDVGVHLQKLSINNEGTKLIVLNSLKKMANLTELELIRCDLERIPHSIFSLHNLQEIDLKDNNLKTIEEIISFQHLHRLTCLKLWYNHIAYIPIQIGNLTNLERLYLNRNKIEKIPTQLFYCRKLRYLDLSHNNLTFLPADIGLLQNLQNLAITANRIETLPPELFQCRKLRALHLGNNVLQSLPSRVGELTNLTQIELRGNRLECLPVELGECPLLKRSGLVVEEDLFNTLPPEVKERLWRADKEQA
Description: ICl,SWELL inhibition after hypotonic activation (open channel), patch-clamp. The class given is cell-based. The following applies: for inhibition of channels first opened by hypotonic activation: 1 μM. On the procedure:
Patch-clamp recordings of β-cells, 3T3-F442A adipocytes, and mature human adipocytes were performed as described previously[24],[28]. Briefly, all patch-clamp experiments were conducted at room temperature using either an Axopatch 200B amplifier or a MultiClamp 700B amplifier paired to a Digidata 1550 digitizer. Data were acquired using pClamp 10.4 software. For hypotonic swelling, extracellular solution consisted of the following (in mM): 90 NaCl, 2 CsCl, 1 MgCl2, 1 CaCl2, 10 HEPES, 10 mannitol, pH 7.4 with NaOH (210 mOsm/kg). The isotonic extracellular solution consisted of the same composition above but with 110 mM instead of 10 mM mannitol (300 mOsm/kg). The swell-activated current was elicited by perfusing cells with a hypotonic solution (210 mOsm/kg). […] For perforated-patch recordings in isolated human adipocytes, the intracellular solution was as above but without ATP and GTP, and contained 360 μg/ml Amphotericin B (Sigma). The holding potential was 0 mV. Voltage ramps from −100 to +100 mV (at 0.4 mV/ms) were applied every 4 s. The sampling interval was 100 μs and filtered at 10 kHz. For perforated-patch recordings, cells with a membrane resistance below 1 GΩ or access resistance above 20 MΩ were discarded. […]

[1] abbreviates: HEK-293 cells, hypotonic (210 mOsm) stimulation, outward current, compound applied at 30 pA/pF, read-out: IC50 for ICl,SWELL inhibition.

Like-named read-outs stand apart in the source and are kept apart here.

Broadly, the IC50 is the concentration that gives 50% inhibition.

Take `CCCCC1(C2CCCC2)Cc2cc(OCC(=O)O)c(Cl)c(Cl)c2C1=O` (centres unmarked) [Inactive 1, 2-((2-butyl-6,7-dichloro-2-cyclopentyl-1-oxo-2,3-dihydro-1H-inden-5-yl)oxy)acetic acid]: the IC50 under setting [1] was determined as 35.5 µM.
Regarding `CCCCC1(C2CCCC2)Cc2cc(OCCCCCC(=O)O)c(Cl)c(Cl)c2C1=O` (centres unmarked) [SN-406, 6-((2-butyl-6,7-dichloro-2-cyclopentyl-1-oxo-2,3-dihydro-1H-inden-5-yl)oxy)hexanoic acid], the “inhibition of channels first opened by hypotonic activation” value was “relatively ineffective”. Moreover, for the setting “HEK-293 cells”, the “ICl,SWELL inhibitory activity compared to SN-401” value is recorded as “increased ICl,SWELL inhibitory activity” and the “concentrations required to effectively inhibit channels when first opened by hypotonic activation” value lay in the range of 6 to 10 µM. Further, under setting [1], the concentration for half-maximal inhibition (IC50) worked out at 3.1 µM.
For the compound `CCCCC1(C2CCCC2)Cc2cc(OCCCC(=O)O)c(Cl)c(Cl)c2C1=O` (centres unmarked) [SN-401, 4-((2-butyl-6,7-dichloro-2-cyclopentyl-1-oxo-2,3-dihydro-1H-inden-5-yl)oxy)butanoic acid], it took 3.9 µM to reach half-maximal inhibition (IC50) and the “inhibition of channels first opened by hypotonic activation” value is “relatively ineffective”. Also, the “concentrations required to effectively inhibit channels when first opened by hypotonic activation” value (HEK-293 cells) lay within 6 to 10 µM.
